The test system of data set [1] is acute hyperlipidemia mice. Description: Acute hyperlipidemia mice. It is filed as in vivo. Particulars: in words, no data shown.
Data set [2] can be described thus: Pharmacokinetic study after oral administration, plasma by UPLC-MS/MS. It is filed as in vivo, C57BL/6J mice. Particulars: for Cmax / Tmax / CL/F / MRT last / MRT inf / half-life: C57BL/6J, mouse, mice plasma; for CL/F: read-out: CLz/F; for MRT last: read-out: MRT (0-t) (converted); for MRT inf: read-out: MRT (0-∞) (converted); for half-life: read-out: t1/2z. As to the method:
Sorvall Biofuge Stratos high-speed refrigerated centrifuge was bought from the Thermo Fisher Scientific Co. Ltd. (Shanghai, China); EL204 electronic balance was selected from Shanghai Mettler-Toledo Instruments Co. Ltd. (Shanghai, China); IKA Vortex Genius 3 Vortex Mixer was purchased from Aika Instrument Equipment Co. Ltd. (Guangzhou, China); and the test was carried out using an AB SCIEX™ 5500 Q-Trap® mass spectrometer (Applied Biosystems, United States) coupled to a Shimadzu Prominence UPLC (ultra-performance liquid chromatography, Shimadzu, United States) system. It was equipped with a binary pump, a degasser, an auto sampler, and an automatic thermostatic column compartment. The column was utilized from Agela Technologies UHP Innoval C18 (2.1 × 50 mm, 1.9 μm; Agela Technologies; Made in China). The whole process with a gradient elution program is as follows: 0.00–0.50 min, 5% B; 0.50–1.50 min, 90% B; 1.50–3.00 min, 90% B; 3.00–3.10 min, 15% B; and 3.10–5.00 min, 15% B. The mobile phase was made up of 0.10% formic acid in water (A) and acetonitrile (B), and the velocity of flow was 0.50 ml/min. The auto sampler and column temperature were set at 15 and 40°C, respectively. The injection volume was 1 μl. The Q-Trap mass spectrometer was operated with positive electrospray ionization source (ESI) and scanned using the multiple-reaction monitoring (MRM) mode. The Analyst® software version 1.6.3 (Applied Bio-systems, AB SCIEX™, United States) was used to control the UPLC-MS/MS system. The best of the YWS01125 parameters was curtain gas, 35 psi; collision gas, medium; ion spray voltage, 5500 V; temperature, 500°C; ion source gas 1, 50 psi; and ion source gas 2, 50 psi. The quantitative analysis ion pairs of YWS01125 and MGL-3196 (IS) were m/z 446.2 → 375 and m/z 435.2 → 182, individually. The suitable collision energy (CE) of YWS01125 and IS was 42 and 50 eV, respectively, and the decluttering voltage (DP) was 160 and 180 V, respectively.
The frozen mice plasma samples and tissue homogenates were thawed at room temperature, vortexed for 1 min, then taken out in 10-μl aliquots in a 1.50-ml centrifuge tube, and this was then mixed with 1 μl of standard solution and 50 μl of internal standard (IS) solution, which was then dissolved and diluted with acetonitrile. Subsequently, it was vortexed for 3 min and at 14,000 rpm centrifugation for 5 min. The adopted 1 μl of the supernatant was used for sample injection analysis.
A total of 18 C57BL/6J mice were given YWS01125 by oral administration with a dose of 10, 20, and 40 mg/kg, respectively ([Lally et al., 2019]; [Kelly et al., 2014]; [Motamed et al., 2017]) (with the concentration of drug administration selected according to the study by Kelly et al.). The blood samples of 20 μl were collected and placed in heparinized tubes from the ophthalmic venous plexus before and at 0.03, 0.08, 0.16, 0.25, 0.50, 1, 2, 4, 6, 8, 12, and 24 h. The samples were immediately centrifuged at 14,000 rpm for 10 min at 4°C. The plasma was separated and stored below −80°C until UHPLC-MS/MS analysis.
The validated method was applied to the pharmacokinetic study of YWS01125 in normal C57BL/6J mice after oral administration, at doses of 10, 20, and 40 mg/kg suspensions with sodium carboxymethyl cellulose (CMCNa). YWS01125 was measured in the plasma until the last blood collection time (24 h). The main pharmacokinetic parameters of YWS01125 were processed by a no compartmental model using the DAS 2.0 software package, and the pharmacokinetic parameters are summarized in Table 4.

Data set [3] concerns NASH. The data set is described as follows: NASH pharmacodynamic study. It is filed as in vivo. Particulars: in words, no data shown.
The nature of data set [4]: Stability of liver microsomes study (mouse). The format is in vitro ADME. Particulars: mouse liver microsomes 0.50 mg/ml, NADPH-generating system, 37°C, 0-90 min. On the procedure: Hypersil GOLD C18 column (4.6 × 150 mm, 5 μm, Thermo). A 0.025% ammonia aqueous solution in water (solvent A) and acetonitrile (solvent B) were used as mobile phases with gradient elution. The gradient was as follows: 0.01 min, 15% B; 5 min, 20% B; 12 min, 80% B; 16 min, 80% B; 16.01 min, 15% B; 19 min, 15% B; and 19.01 min, stopped. The timing interval was 19 min, and the flow rate was set at 1 ml/min.
The incubation system was carried out in 0.05 M Tris/KCl buffer (PH = 7.4) and included the following: pyrazinone compounds dissolved with dimethyl sulfoxide (DMSO), mouse liver microsomes and human liver microsomes at 0.50 mg/ml, 1.30 mM nicotinamide adenine dinucleotide sodium phosphate (NADP), 3.30 mM glucose-6-phosphate disodium salt (G-6-P), 0.40 units/mL glucose-6-phosphate dehydrogenase (G-6-PDH), and 3.30 mM magnesium chloride. […] After preincubation for 3 min in an 850-rpm blender (37°C), liver microsomes were added to initiate the incubation reaction (37°C). The incubation time was 0, 30, 60, and 90 min. After incubation, an equal volume of cold acetonitrile was added to stop the reaction, and an internal standard (0.05 mg/ml acetaminophen solution) was added. The samples were centrifuged at 10,000 rpm for 10 min to precipitate proteins ([Day et al., 2017]; [Manne et al., 2018]), and the 10 µL of the supernatant was taken for HPLC analysis.
For orientation: Liver microsomes are vesicles of endoplasmic reticulum, rich in cytochrome P450 enzymes.

Data set [5] in a line: Cytotoxicity. The format is cell-based. Particulars: in words, no data shown.
Data set [6] deals with acute liver injury model. The data set is described as follows: Acute liver injury model. It is filed as in vivo, rat. Particulars: in words, no data shown.

Entries after “also recorded” stand apart in the source; their conditions may differ. Like-named read-outs stand apart in the source and are kept apart here.

Broadly, the Cmax is the maximum level reached in the sampled fluid or tissue. Usually Tmax stands for the time at which the peak concentration occurs. `N#Cc1cn(-c2cc(Cl)c(Oc3cc(C4CCC4)c(=O)[nH]n3)c(Cl)c2)c(=O)[nH]c1=O` [YWS01125, 1-(3,5-dichloro-4-((5-cyclobutyl-6-oxo-1,6-dihydropyridazin-3-yl)oxy)phenyl)-2,4-dioxo-1,2,3,4-tetrahydropyrimidine-5-carbonitrile]: in data set [1], the “Effect on acute hyperlipidemia mice” value is “lipid-lowering function”. Further, in data set [2] (oral 10 mg/kg), the Cmax was determined as 188 ± 30 ng/mL, the Tmax is 55 min, the CL/F is 160 ± 20 mL/min/kg and the MRT last was 3.42 h. In data set [2] (oral 10 mg/kg), the MRT inf was 4.04 h and the half-life worked out at 189 ± 95.3 min. In addition, in data set [2] (oral 20 mg/kg), the highest level (Cmax) was 293 ± 60.4 ng/mL, the Tmax was 60 min, the CL/F was found to be 250 ± 280 mL/min/kg and the MRT last was 3.06 h. In data set [2] (oral 20 mg/kg), the MRT inf is 3.4 h and the half-life was 153 ± 38 min. Further, in data set [2] (oral 40 mg/kg), the highest level (Cmax) was 382 ± 30.6 ng/mL, the Tmax is 55 min, the CL/F worked out at 280 ± 50 mL/min/kg and the MRT last was 4.57 h. Besides, in data set [2] (oral 40 mg/kg), the MRT inf was 4.94 h and the half-life is 182 ± 64.2 min. In data set [2] (mice, oral), the “Time of highest concentration in the blood” value came out at 1 h. Moreover, in data set [3], the “Effect on NASH” value is “alleviation of NASH”. In addition, the “Metabolic stability / metabolite formation in liver microsomes” value in data set [4] is “no metabolites; also recorded: stable”. The Cytotoxicity result in data set [5] is recorded as “low cytotoxicity”. The “Effect in acute liver injury model” value in data set [6] is “hepatoprotective effect”.
